This assay concerns the target TARP γ8 dependent AMPA receptor (GRIA1o-CACNG8 fusion construct) (Homo sapiens (Human), UniProt P42261+Q8WXS5). Nature of the assay: Calcium flux assay (FLIPR), inhibition of glutamate response of GluA1o-γ8 channel. The format is cell-based. The following applies: HEK293 cells stably expressing GRIA1o-CACNG8 fusion; calcium flux after 15 μM glutamate; negative log of the IC50 in molar. The procedure, abridged:
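HEK293 clonal line stably expressing a GRIA1o-CACNG8 fusion (1:1 GluA1o:γ8), loaded with Calcium-5/6 dye plus compound in HEPES buffer pH 7.4. FLIPR calcium flux read after 15 μM glutamate; normalized to no-compound and 10 μM CP465022 controls. Four-parameter logistic fit gives IC50, reported as pIC50.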
(In general: Calcium assays in cells follow changes in intracellular calcium, usually with a dye or a luminescent sensor.)
Sequence of TARP γ8 dependent AMPA receptor (GRIA1o-CACNG8 fusion construct) (P42261 other isoform, or with tags, fused parts or gaps): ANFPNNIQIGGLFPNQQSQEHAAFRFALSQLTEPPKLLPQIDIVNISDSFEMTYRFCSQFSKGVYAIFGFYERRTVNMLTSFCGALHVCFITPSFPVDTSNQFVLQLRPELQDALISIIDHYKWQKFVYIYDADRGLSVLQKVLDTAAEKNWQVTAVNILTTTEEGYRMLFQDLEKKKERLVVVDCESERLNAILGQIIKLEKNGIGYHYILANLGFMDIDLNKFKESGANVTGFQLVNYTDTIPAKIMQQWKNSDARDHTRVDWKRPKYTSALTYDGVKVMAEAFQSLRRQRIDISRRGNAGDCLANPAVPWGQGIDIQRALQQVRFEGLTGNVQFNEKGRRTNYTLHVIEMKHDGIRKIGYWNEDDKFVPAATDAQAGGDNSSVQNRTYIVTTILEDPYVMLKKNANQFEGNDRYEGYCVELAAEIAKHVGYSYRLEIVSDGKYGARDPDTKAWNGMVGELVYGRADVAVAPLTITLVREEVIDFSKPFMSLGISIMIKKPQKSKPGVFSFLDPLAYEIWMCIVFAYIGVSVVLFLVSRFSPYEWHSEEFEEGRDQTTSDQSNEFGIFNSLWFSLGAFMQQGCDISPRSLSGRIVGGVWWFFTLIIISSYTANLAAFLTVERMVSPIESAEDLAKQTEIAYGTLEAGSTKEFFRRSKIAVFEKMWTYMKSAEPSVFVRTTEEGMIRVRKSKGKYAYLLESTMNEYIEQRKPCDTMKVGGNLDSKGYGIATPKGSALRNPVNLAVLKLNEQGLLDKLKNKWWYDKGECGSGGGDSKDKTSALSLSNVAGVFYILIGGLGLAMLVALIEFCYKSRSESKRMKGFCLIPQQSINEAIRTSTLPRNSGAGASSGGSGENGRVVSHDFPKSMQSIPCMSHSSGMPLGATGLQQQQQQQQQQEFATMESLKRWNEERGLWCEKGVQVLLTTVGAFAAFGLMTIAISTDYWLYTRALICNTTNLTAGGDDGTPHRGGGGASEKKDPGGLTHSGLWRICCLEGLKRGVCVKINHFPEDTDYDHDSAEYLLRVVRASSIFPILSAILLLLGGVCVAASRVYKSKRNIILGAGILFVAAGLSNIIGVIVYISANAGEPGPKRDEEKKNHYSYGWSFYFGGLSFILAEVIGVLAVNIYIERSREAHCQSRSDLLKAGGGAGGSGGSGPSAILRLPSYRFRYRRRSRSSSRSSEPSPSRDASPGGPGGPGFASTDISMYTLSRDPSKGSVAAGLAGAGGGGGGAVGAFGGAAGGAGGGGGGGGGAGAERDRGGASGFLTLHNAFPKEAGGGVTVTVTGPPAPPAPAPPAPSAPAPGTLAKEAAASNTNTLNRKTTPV
Turning to `Cc1cc(-c2c(C(F)(F)F)ccc3nc(C(C)C)nn23)cc2cn[nH]c12` [Example 37, 2-Isopropyl-5-(7-methyl-1H-indazol-5-yl)-6-(trifluoromethyl)-[1,2,4]triazolo[1,5-a]pyridine], the IC50 is 0.316 nM. Consider `Cc1cc(-c2c(C(F)F)cc(C)c3cc(C(F)(F)F)nn23)cc2c1NC(=O)C2` [Example 122, 5-[6-(Difluoromethyl)-4-methyl-2-(trifluoromethyl)pyrazolo[1,5-a]pyridin-7-yl]-7-methyl-indolin-2-one], for which the half-inhibitory concentration (IC50) is 0.0501 nM.

In the case of `COc1cc(-c2c(C(F)F)ccc3nc(C(F)(F)F)nn23)cc2c1NC(=O)C2` [Example 20, 5-[6-(Difluoromethyl)-2-(trifluoromethyl)-[1,2,4]triazolo[1,5-a]pyridin-5-yl]-7-methoxy-indolin-2-one], the 50% inhibitory concentration (IC50) was 2.51 nM. Consider `Cc1cc(-c2c(C(F)(F)F)cc(C)c3nc(C(F)(F)F)nn23)cc2cn[nH]c12` [Example 107, 8-Methyl-5-(7-methyl-1H-indazol-5-yl)-2,6-bis(trifluoromethyl)-[1,2,4]triazolo[1,5-a]pyridine], for which the IC50 is 0.501 nM. For the compound `CC(C)c1nc2ccc(C(F)(F)F)c(-c3cc(Cl)c4[nH]ncc4c3)n2n1` [Example 36, 5-(7-Chloro-1H-indazol-5-yl)-2-isopropyl-6-(trifluoromethyl)-[1,2,4]triazolo[1,5-a]pyridine], the IC50 was 0.0794 nM.

Take `Cc1cc(C(F)F)c(-c2cc(Cl)c3c(c2)CC(=O)N3)n2nc(C(F)(F)F)cc12` [Example 124, 7-Chloro-5-[6-(difluoromethyl)-4-methyl-2-(trifluoromethyl)pyrazolo[1,5-a]pyridin-7-yl]indolin-2-one]: the concentration for half-maximal inhibition (IC50) is 0.251 nM. As for `COc1ccc2nc(C(F)(F)F)nn2c1-c1cc(C)c2[nH]ncc2c1` [Example 51, 6-Methoxy-5-(7-methyl-1H-indazol-5-yl)-2-(trifluoromethyl)-[1,2,4]triazolo[1,5-a]pyridine], the concentration for half-maximal inhibition (IC50) was 5.01 nM. In the case of `CCc1nc2c(C)cc(C(F)(F)F)c(-c3cc(C(F)(F)F)c4[nH]ncc4c3)n2n1` [Example 101, 2-Ethyl-8-methyl-6-(trifluoromethyl)-5-(7-(trifluoromethyl)-1H-indazol-5-yl)-[1,2,4]triazolo[1,5-a]pyridine], the IC50 is 0.316 nM. For the compound `COc1cc(-c2c(C(F)(F)F)ccc3nc(C(F)F)nn23)cc2c1NC(=O)C2` [Example 12, 5-(2-(Difluoromethyl)-6-(trifluoromethyl)-[1,2,4]triazolo[1,5-a]pyridin-5-yl)-7-methoxyindolin-2-one], the IC50 was 5.01 nM. On to `FC(F)(F)c1nc2c(Cl)cc(C(F)(F)F)c(-c3cc(Cl)c4[nH]ncc4c3)n2n1` [Example 5, 8-Chloro-5-(7-chloro-1H-indazol-5-yl)-2,6-bis(trifluoromethyl)-[1,2,4]triazolo[1,5-a]pyridine], for which the IC50 was 0.316 nM. Then `Cc1cc(C(F)(F)F)c(-c2cc(Cl)c3[nH]ncc3c2)n2nc(C(F)F)nc12` [Example 78, 5-(7-Chloro-1H-indazol-5-yl)-2-(difluoromethyl)-8-methyl-6-(trifluoromethyl)-[1,2,4]triazolo[1,5-a]pyridine], with 0.126 nM. For `CCc1nc2c(Cl)cc(C(F)(F)F)c(-c3cc(C)c4[nH]ncc4c3)n2n1` [Example 30, 8-Chloro-2-ethyl-5-(7-methyl-1H-indazol-5-yl)-6-(trifluoromethyl)-[1,2,4]triazolo[1,5-a]pyridine], the IC50 is 3.98 nM.

For `O=C1Cc2cc(-c3c(C(F)(F)F)ccc4nc(C(F)F)nn34)cc(Cl)c2N1` [Example 9, 7-Chloro-5-(2-(difluoromethyl)-6-(trifluoromethyl)-[1,2,4]triazolo[1,5-a]pyridin-5-yl)indolin-2-one], the IC50 is 0.398 nM.

For the compound `CCc1cc(C(F)F)c(-c2cc(C)c3[nH]ncc3c2)n2nc(C3CC3)nc12` [Example 94, 2-Cyclopropyl-6-(difluoromethyl)-8-ethyl-5-(7-methyl-1H-indazol-5-yl)-[1,2,4]triazolo[1,5-a]pyridine], the IC50 was 0.398 nM.

For the compound `Cc1cc(C(F)F)c(-c2cc(Cl)c3c(c2)CC(=O)N3)n2nc(C3CC3)nc12` [Example 113, 7-Chloro-5-(2-cyclopropyl-6-(difluoromethyl)-8-methyl-[1,2,4]triazolo[1,5-a]pyridin-5-yl)indolin-2-one], the IC50 is 0.316 nM. Next, `CCc1nc2ccc(C(F)(F)F)c(-c3cc(Cl)c4c(c3)CC(=O)N4)n2n1` [Example 27, 7-Chloro-5-(2-ethyl-6-(trifluoromethyl)-[1,2,4]triazolo[1,5-a]pyridin-5-yl)indolin-2-one]: 1.26 nM; `Cc1cc(-c2c(C(F)F)ccc3nc(C(F)(F)F)nn23)cc2cn[nH]c12` [Example 17, 6-(Difluoromethyl)-5-(7-methyl-1H-indazol-5-yl)-2-(trifluoromethyl)-[1,2,4]triazolo[1,5-a]pyridine]: 0.158 nM.

As to `Cc1cc(-c2c(C(F)F)ccc3nc(C(F)(F)F)nn23)cc2c1NC(=O)C2` [Example 19, 5-[6-(Difluoromethyl)-2-(trifluoromethyl)-[1,2,4]triazolo[1,5-a]pyridin-5-yl]-7-methyl-indolin-2-one], the IC50 was 0.631 nM. Next, `CC(F)(F)c1ccc2nc(C(F)(F)F)nn2c1-c1cc(Cl)c2[nH]ncc2c1` [Example 53, 5-(7-Chloro-1H-indazol-5-yl)-6-(1,1-difluoroethyl)-2-(trifluoromethyl)-[1,2,4]triazolo[1,5-a]pyridine]: 0.0501 nM; `Cc1cc(-c2c(C(F)F)cc(C)c3cc(C(F)(F)F)nn23)cc2cn[nH]c12` [Example 123, 6-(Difluoromethyl)-4-methyl-7-(7-methyl-1H-indazol-5-yl)-2-(trifluoromethyl)pyrazolo[1,5-a]pyridine]: 0.126 nM; `Cc1cc(C(F)F)c(-c2cc(Cl)c3[nH]ncc3c2)n2nc(C3CC3)nc12` [Example 112, 5-(7-Chloro-1H-indazol-5-yl)-2-cyclopropyl-6-(difluoromethyl)-8-methyl-[1,2,4]triazolo[1,5-a]pyridine]: 0.1 nM. Consider `Cc1cc(-c2c(C(F)(F)F)ccc3nc(C4CC4)nn23)cc2c1NC(=O)C2` [Example 41, 5-(2-Cyclopropyl-6-(trifluoromethyl)-[1,2,4]triazolo[1,5-a]pyridin-5-yl)-7-methylindolin-2-one], for which the half-inhibitory concentration (IC50) was 0.631 nM. As to `COc1ccc2nc(C(F)(F)F)nn2c1-c1cc(Cl)c2[nH]ncc2c1` [Example 50, 5-(7-Chloro-1H-indazol-5-yl)-6-methoxy-2-(trifluoromethyl)-[1,2,4]triazolo[1,5-a]pyridine], the IC50 was 1 nM.

`CCc1cc(C(F)(F)F)c(-c2cc(Cl)c3[nH]ncc3c2)n2nc(C(F)F)nc12` [Example 87, 5-(7-Chloro-1H-indazol-5-yl)-2-(difluoromethyl)-8-ethyl-6-(trifluoromethyl)-[1,2,4]triazolo[1,5-a]pyridine]: the half-maximal inhibitory concentration (IC50) is 0.398 nM. Turning to `CC(C)c1cc2ccc(C(F)(F)F)c(-c3cc(Cl)c4[nH]ncc4c3)n2n1` [Example 73, 7-Chloro-5-(2-isopropyl-6-(trifluoromethyl)pyrazolo[1,5-a]pyridin-7-yl)-1H-indazole], the IC50 is 0.01 nM. As for `Cc1cc(-c2c(-c3ccc(F)cc3)ccc3nc(C(F)(F)F)nn23)cc2c1NC(=O)C2` [Example 57, 5-(6-(4-Fluorophenyl)-2-(trifluoromethyl)-[1,2,4]triazolo[1,5-a]pyridin-5-yl)-7-methylindolin-2-one], the 50% inhibitory concentration (IC50) is 0.0631 nM.

Regarding `CCc1nc2ccc(C(F)(F)F)c(-c3cc(Cl)c4[nH]ncc4c3)n2n1` [Example 25, 5-(7-Chloro-1H-indazol-5-yl)-2-ethyl-6-(trifluoromethyl)-[1,2,4]triazolo[1,5-a]pyridine], the IC50 is 0.398 nM. As for `CCCc1nc2c(C)cc(C(F)(F)F)c(-c3cc(Cl)c4[nH]ncc4c3)n2n1` [Example 83, 5-(7-Chloro-1H-indazol-5-yl)-8-methyl-2-propyl-6-(trifluoromethyl)-[1,2,4]triazolo[1,5-a]pyridine], the IC50 is 0.2 nM. Regarding `Cc1cc(C(F)F)c(-c2cc(Cl)c3c(c2)CC(=O)N3)n2nc(C(F)(F)F)nc12` [Example 110, 7-Chloro-5-(6-(difluoromethyl)-8-methyl-2-(trifluoromethyl)-[1,2,4]triazolo[1,5-a]pyridin-5-yl)indolin-2-one], the IC50 is 0.794 nM. On to `Cc1cc(-c2c(C(F)(F)F)cc(C)c3nc(C4CC4)nn23)cc2c1NC(=O)C2` [Example 99, 5-(2-Cyclopropyl-8-methyl-6-(trifluoromethyl)-[1,2,4]triazolo[1,5-a]pyridin-5-yl)-7-methylindolin-2-one], for which the 50% inhibitory concentration (IC50) was 0.251 nM. `CCc1nc2c(C)cc(C(F)F)c(-c3cc(Cl)c4[nH]ncc4c3)n2n1` [Example 115, 5-(7-Chloro-1H-indazol-5-yl)-6-(difluoromethyl)-2-ethyl-8-methyl-[1,2,4]triazolo[1,5-a]pyridine]: the IC50 was 2 nM. `COc1cc(-c2c(C(F)(F)F)cc(C)c3nc(C(F)(F)F)nn23)cc2c1NC(=O)C2` [Example 106, 7-Methoxy-5-(8-methyl-2,6-bis(trifluoromethyl)-[1,2,4]triazolo[1,5-a]pyridin-5-yl)indolin-2-one]: the concentration for half-maximal inhibition (IC50) was 1.26 nM. Then `Cc1cc(-c2c(C(F)(F)F)ccc3nc(C(F)(F)F)nn23)cc2cn[nH]c12` [Example 2, 5-(7-Methyl-1H-indazol-5-yl)-2,6-bis(trifluoromethyl)-[1,2,4]triazolo[1,5-a]pyridine], with 0.2 nM; and `FC(F)c1nc2ccc(C(F)(F)F)c(-c3cc(Cl)c4[nH]ncc4c3)n2n1` [Example 7, 5-(7-Chloro-1H-indazol-5-yl)-2-(difluoromethyl)-6-(trifluoromethyl)-[1,2,4]triazolo[1,5-a]pyridine], with 0.0631 nM.

What is called IC50 is the concentration that gives 50% inhibition.
